Laboratory results taken from patent publication US10874743B2, “IRAK degraders and uses thereof” (Kymera Therapeutics, Inc., priority 2017, dated 2020).

Biological target: T1, IRAK4 (Homo sapiens, UniProt Q9NWZ3)
T1 sequence (Q9NWZ3 1-460): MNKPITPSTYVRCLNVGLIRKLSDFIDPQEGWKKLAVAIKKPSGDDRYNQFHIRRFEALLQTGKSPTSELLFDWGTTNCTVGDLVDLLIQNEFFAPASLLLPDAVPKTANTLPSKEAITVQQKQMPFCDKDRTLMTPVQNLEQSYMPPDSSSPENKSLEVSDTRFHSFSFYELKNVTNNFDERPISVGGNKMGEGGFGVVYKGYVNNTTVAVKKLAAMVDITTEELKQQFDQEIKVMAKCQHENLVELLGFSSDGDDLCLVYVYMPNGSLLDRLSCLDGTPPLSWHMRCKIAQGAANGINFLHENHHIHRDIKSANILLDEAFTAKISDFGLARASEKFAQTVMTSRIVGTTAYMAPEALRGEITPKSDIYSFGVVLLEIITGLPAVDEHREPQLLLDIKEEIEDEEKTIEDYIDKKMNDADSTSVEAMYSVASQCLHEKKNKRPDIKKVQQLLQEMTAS
Assay: THP-1 degradation assay (western blot, % IRAK4 degraded after 24 hours)
Type: cell-based
Set-up: endogenous in cells
Settings: THP-1 cells
Method: Compounds were reconstituted in DMSO to make stock solutions at concentration of 60 mM. THP-1 and OCI-LY10 cells were maintained in RPMI-1640 medium containing 10% FBS, 0.5 μM 2-ME or 20% FBS, 55 μM 2-ME, and 1% L-Glutamine respectively.
Cells were seeded into 6-well plates with 5e6 cells per well. 200 μL of diluted compounds were added to cells to the final concentration of 0.003-10 μM. After 4 or 24 hour-incubation at 37° C., cells were collected into 2 mL Eppendorf tubes and centrifuged at 1,000 rpm for 5 min. The cell pellets were washed with 1×DPBS once and resuspended in 60 μL lysis buffer. The cells were lysed on ice for 10 min, then centrifuged at 14,000 rpm for 10 min at 4° C. and the supernatants were collected for western blots. For THP-1 cells, the lysis buffer contained 40 mM pH 7.4 HEPES, 140 mM NaCl, 2.5 mM EDTA, 1% NP-40, 0.1% SDS, and protease inhibitor cocktail (Roche, Cat. No. 05892791001). For OCI-LY10 cells, RIPAbuffer (Thermo Fisher, 89900) with Halt Protease and Phosphatase Inhibitor Cocktail (Thermo Fisher, 78446) was applied.
The protein concentration of cell lysates was quantified with Pierce™ BCA Protein Assay Kit (Pierce, 23227). Albumin standards at different concentrations were prepared, involving 2,000 ug/mL, 1,500 ug/mL, 1,000 ug/mL, 750 ug/mL, 500 ug/mL, 250 ug/mL, 125 ug/mL, and 25 ug/mL. BCA working reagents were prepared by mixing BCA reagent A with reagent B in 50:1 ratio. 200 μL of the BCA working reagents were added to 25 μL of BCA standard or cell lysates in microplate, and mixed thoroughly on a plate shaker for 30 seconds. After incubation at 37° C. for 30 min, the absorbance of samples at 562 nm were measured with EnVision Plate Reader.
Protein lysates were prepared in NuPAGE™ LDS sample buffer and NuPAGE™ sample reducing agent, and incubated at 95° C. for 5 min. For western blots, 20-25 μg of total proteins were resolved in 4-12% Bis-Tris gels (Introgen, WG1403A) or 10% Bis-Tris Midi gels (Invitrogen, WG1202BOX) running with 1×MOPS SDS running buffer (Invitrogen, NP0001) or 1×MES SDS running buffer (Invitrogen, NP0002). The proteins were transferred to low fluorescence PVDF membranes using the Trans-Blot Turbo Transfer System. Membranes were then blocked in Odyssey blocking buffer at RT for 1 h followed by primary incubation at 4° C. overnight. The primary antibodies were IRAK1 rabbit monoclonal antibody (CST, #4504S, 1:500), IRAK3 rabbit polyclonal antibody (CST, #4369, 1:500), IRAK4 rabbit polyclonal antibody (CST, #4363S, 1:1,000), MyD88 rabbit monoclonal antibody (Abcam, Ab133739, 1:2,000), j3-actin mouse monoclonal antibody (Sigma, A5441, 10,000), and Gapdh mouse monoclonal antibody (Millipore, MAB374, 1:5,000). Membranes were washed three times with 1×TBST, and then incubated with IR Dye 800 CW Goat anti-rabbit (Licor, #926-32211) and IR Dye 700 CW Goat anti-mouse (Licor, #926-68070) secondary antibodies in 1:10,000 dilution at RT for 1 h. The western blot images were obtained using Odyssey Imaging System.
THP-1 results at 24 hours. The letter codes indicate the percentage of IRAK4 degraded after 24 hours: A (>50% degradation), B (>20-50% degradation) and C (<20% degradation)

THP-1 24 h % IRAK4 Degradation	Compound
C (<20% degradation)	Cc1ncsc1-c1ccc(CNC(=O)[C@@H]2C[C@@H](O)CN2C(=O)[C@H](NC(=O)CCCCCCCCCCCNC(=O)[C@H]2CC[C@H](NC(=O)c3cnc(Nc4ccc5cnccc5n4)cc3NC3CC3)CC2)C(C)(C)C)cc1 [I-12]
C (<20% degradation)	Cc1ncsc1-c1ccc(CNC(=O)[C@@H]2C[C@@H](O)CN2C(=O)C(NC(=O)COCCOCCOCCOCCNC(=O)[C@H]2CC[C@H](NC(=O)c3cnc(Nc4ccc5cnccc5n4)cc3NC3CC3)CC2)C(C)(C)C)cc1 (stereo partly shown) [I-13]
C (<20% degradation)	Cc1ncsc1-c1ccc(CNC(=O)[C@@H]2C[C@@H](O)CN2C(=O)[C@H](NC(=O)CCCCCOCCCCCCCNC(=O)[C@H]2CC[C@H](NC(=O)c3cnc(Nc4ccc5cnccc5n4)cc3NC3CC3)CC2)C(C)(C)C)cc1 [I-14]
A (>50% degradation)	Cc1ncsc1-c1ccc(CNC(=O)[C@@H]2C[C@@H](O)CN2C(=O)[C@H](NC(=O)CCCCNC(=O)[C@H]2CC[C@H](NC(=O)c3cnc(Nc4ccc5cnccc5n4)cc3NC3CC3)CC2)C(C)(C)C)cc1 [I-15]
C (<20% degradation)	O=C(COc1cccc2c1C(=O)N(C1CCC(=O)NC1=O)C2=O)NCCOCCOCCNC(=O)[C@H]1C[C@H](NC(=O)c2cnc(Nc3ccc4cnccc4n3)cc2NC2CC2)C1 (stereo partly shown) [I-16]
C (<20% degradation)	O=C(CN1CCC(NC(=O)c2cnc(Nc3ccc4cnccc4n3)cc2NC2CC2)CC1)NCCOCCOCCNc1cccc2c1C(=O)N(C1CCC(=O)NC1=O)C2=O (stereo not shown) [I-19, 6-((1,6-naphthyridin-2-yl)amino)-4-(cyclopropylamino)-N-(1-(2-((2-(2-(2-((2-(2,6-dioxopiperidin-3-yl)-1,3-dioxoisoindolin-4-yl)amino)ethoxy)ethoxy)ethyl)amino)-2-oxoethyl)piperidin-4-yl)nicotinamide]
B (>20-50% degradation)	O=C1CCC(N2C(=O)c3cccc(NCCOCCNC(=O)[C@H]4CC[C@H](NC(=O)c5cnc(Nc6ccc7cnccc7n6)cc5NC5CC5)CC4)c3C2=O)C(=O)N1 (stereo partly shown) [I-25, 6-((1,6-naphthyridin-2-yl)amino)-4-(cyclopropylamino)-N-((1r,4r)-4-((2-(2-((2-(2,6-dioxopiperidin-3-yl)-1,3-dioxoisoindolin-4-yl)amino)ethoxy)ethyl)carbamoyl)cyclohexyl)nicotinamide]
C (<20% degradation)	O=C1CCC(N2C(=O)c3cccc(NCCCOCCCNC(=O)[C@H]4CC[C@H](NC(=O)c5cnc(Nc6ccc7cnccc7n6)cc5NC5CC5)CC4)c3C2=O)C(=O)N1 (stereo partly drawn) [I-30, 6-((1,6-naphthyridin-2-yl)amino)-4-(cyclopropylamino)-N-((1R,4R)-4-((3-(3-((2-(2,6-dioxopiperidin-3-yl)-1,3-dioxoisoindolin-4-yl)amino)propoxy)propyl)carbamoyl)cyclohexyl)nicotinamide]
C (<20% degradation)	CN(CCOCCOCCNc1cccc2c1C(=O)N(C1CCC(=O)NC1=O)C2=O)C(=O)[C@H]1CC[C@H](NC(=O)c2cnc(Nc3ccc4cnccc4n3)cc2NC2CC2)CC1 (stereo partly drawn) [I-40, 6-((1,6-naphthyridin-2-yl)amino)-4-(cyclopropylamino)-N-((1R,4R)-4-((2-(2-(2-((2-(2,6-dioxopiperidin-3-yl)-1,3-dioxoisoindolin-4-yl)amino)ethoxy)ethoxy)ethyl)(methyl)carbamoyl)cyclohexyl)nicotinamide]
C (<20% degradation)	O=C1CCC(N2C(=O)c3cccc(NCCOCCOCCOCC(=O)N4CCC(NC(=O)c5cnc(Nc6ccc7cnccc7n6)cc5NC5CC5)CC4)c3C2=O)C(=O)N1 (stereo not shown) [I-43, 6-((1,6-naphthyridin-2-yl)amino)-4-(cyclopropylamino)-N-(1-(2-(2-(2-(2-((2-(2,6-dioxopiperidin-3-yl)-1,3-dioxoisoindolin-4-yl)amino)ethoxy)ethoxy)ethoxy)acetyl)piperidin-4-yl)nicotinamide]
B (>20-50% degradation)	O=C1CCC(N2C(=O)c3cccc(NCCOCCOCCOCCOCCN4CCN(CCOCC(F)CNC(=O)c5cnc(Nc6ccc7cnccc7n6)cc5NC5CC5)CC4)c3C2=O)C(=O)N1 (stereo not shown) [I-47]
B (>20-50% degradation)	O=C1CCC(N2C(=O)c3cccc(NCCOCCOCCOCCOCCOCC(F)CNC(=O)c4cnc(Nc5ccc6cnccc6n5)cc4NC4CC4)c3C2=O)C(=O)N1 (stereo not shown) [I-48]
B (>20-50% degradation)	O=C1CCC(N2C(=O)c3cccc(NCCOCCOCCOCC(F)CNC(=O)c4cnc(Nc5ccc6cnccc6n5)cc4NC4CC4)c3C2=O)C(=O)N1 (stereo not shown) [I-49]
B (>20-50% degradation)	O=C1CCC(N2C(=O)c3cccc(NCCOCCOCCOCCOCC(F)CNC(=O)c4cnc(Nc5ccc6cnccc6n5)cc4NC4CC4)c3C2=O)C(=O)N1 (stereo not shown) [I-50]
C (<20% degradation)	O=C1CCC(N2C(=O)c3cccc(NCCOCCOCCOCCOCCOCCOCC(F)CNC(=O)c4cnc(Nc5ccc6cnccc6n5)cc4NC4CC4)c3C2=O)C(=O)N1 (stereo not shown) [I-51]
C (<20% degradation)	O=C1CCC(N2C(=O)c3cccc(NCCOCCOCCOCCOCCOCC(F)CNC(=O)c4cnc(Nc5ccc6ncsc6c5)cc4NC4CC4)c3C2=O)C(=O)N1 (stereo not shown) [I-52]
C (<20% degradation)	CC(C)(OCC(=O)NCCOCCOCCNc1cccc2c1C(=O)N(C1CCC(=O)NC1=O)C2=O)C(F)CNC(=O)c1cnc(Nc2ccc3cnccc3n2)cc1NC1CC1 (stereo not shown) [I-55]
C (<20% degradation)	N#Cc1cnc(Nc2cc(NC3CC3)c(C(=O)NCC(F)COCCOCCOCCNc3cccc4c3C(=O)N(C3CCC(=O)NC3=O)C4=O)cn2)c(F)c1 (stereo not shown) [I-58]
C (<20% degradation)	O=C(COc1cccc2c1C(=O)N(C1CCC(=O)NC1=O)C2=O)NCCOCCOCCOCC(F)CNC(=O)c1cnc(Nc2ccc3cnccc3n2)cc1NC1CC1 (stereo not shown) [I-96]
B (>20-50% degradation)	O=C(COc1cccc2c1C(=O)N(C1CCC(=O)NC1=O)C2=O)NCCOCCOCCOCCOCCOCC(F)CNC(=O)c1cnc(Nc2ccc3cnccc3n2)cc1NC1CC1 (stereo not shown) [I-97]
B (>20-50% degradation)	O=C(COc1cccc2c1C(=O)N(C1CCC(=O)NC1=O)C2=O)NCCOCCOCCOCCOCC(F)CNC(=O)c1cnc(Nc2ccc3cnccc3n2)cc1NC1CC1 (stereo not shown) [I-98]
C (<20% degradation)	O=C(COc1cccc2c1C(=O)N(C1CCC(=O)NC1=O)C2=O)NCCOCCOCC(F)CNC(=O)c1cnc(Nc2ccc3cnccc3n2)cc1NC1CC1 (stereo not shown) [I-99]
B (>20-50% degradation)	O=C(COc1cccc2c1C(=O)N(C1CCC(=O)NC1=O)C2=O)NCCCOCCCOCC(F)CNC(=O)c1cnc(Nc2ccc3cnccc3n2)cc1NC1CC1 (stereo not shown) [I-100]
B (>20-50% degradation)	Cc1ncsc1-c1ccc(CNC(=O)[C@@H]2C[C@@H](O)CN2C(=O)[C@@H](NC(=O)COCCOCCOCCOCCOCCOCC(F)CNC(=O)c2cnc(Nc3ccc4cnccc4n3)cc2NC2CC2)C(C)(C)C)cc1 (stereo partly shown) [I-119]
C (<20% degradation)	Cc1ncsc1-c1ccc(CNC(=O)[C@@H]2C[C@@H](O)CN2C(=O)[C@@H](NC(=O)COCCOCCOCC(F)CNC(=O)c2cnc(Nc3ccc4cnccc4n3)cc2NC2CC2)C(C)(C)C)cc1 (stereo partly shown) [I-120]
